According to publication PMC11061835, “Elucidating the Mechanism of Metabolism of Cannabichromene by Human Cytochrome P450s” (Journal of Natural Products, 2024):
Values joined by “and” are separate entries in the source; they are usually repeats but may differ in a detail not shown here. Equal entries are not always repeated.

Key:
CYP2C8 = target: T1, CYP2C8 (Homo sapiens, UniProt P10632); assay: CBC metabolism by CYP2C8; type: in vitro ADME; conditions: CYP2C8, from Vmax
T1 construct: His-tag; made in house; host or cells: E. coli DH-5α with pTGro7 plasmid
T1 sequence (P10632 1-490): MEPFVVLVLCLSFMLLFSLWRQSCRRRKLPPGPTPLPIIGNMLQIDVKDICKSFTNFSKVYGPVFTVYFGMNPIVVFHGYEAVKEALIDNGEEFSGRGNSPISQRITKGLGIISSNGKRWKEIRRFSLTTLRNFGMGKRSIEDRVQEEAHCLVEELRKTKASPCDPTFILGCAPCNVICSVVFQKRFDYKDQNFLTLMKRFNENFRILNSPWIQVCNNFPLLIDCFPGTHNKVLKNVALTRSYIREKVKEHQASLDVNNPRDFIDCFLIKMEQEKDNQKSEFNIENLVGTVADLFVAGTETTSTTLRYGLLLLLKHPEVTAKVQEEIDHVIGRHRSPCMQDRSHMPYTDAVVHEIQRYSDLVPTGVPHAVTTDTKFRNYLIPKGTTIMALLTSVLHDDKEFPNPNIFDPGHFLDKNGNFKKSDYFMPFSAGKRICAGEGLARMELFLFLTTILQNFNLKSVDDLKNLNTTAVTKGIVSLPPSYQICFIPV
Description: (§1) To study the kinetics of CBC metabolism, concentration dependent metabolism of CBC was carried out in the presence of various CYPs using the following procedure. CYP2J2, CYP2C8, CYP2D6, CYP2C9, and CYP3A4 (final concentration 0.5 μM) were initially dissolved in lipid containing POPC:POPS (8:2 v/v) followed by addition of CPR (final concentration 0.6 μM) in 0.1 M potassium phosphate buffer (pH 7.4). CBC (5–80 μM) was added and incubated at 37 °C for 10 min. The reaction was triggered by NADPH and extracted using the exact sample protocol as mentioned in the HLM section.
(§2) Samples were analyzed with the 5500 QTRAP LC/MS/MS system (Sciex, Framingham, MA) in the Metabolomics Lab of Roy J. Carver Biotechnology Center, University of Illinois at Urbana–Champaign. Software Analyst 1.7.1 was used for data acquisition and analysis. The 1200 series HPLC system (Agilent Technologies, Santa Clara, CA) includes a degasser, an autosampler, and a binary pump. […] Multiple reaction monitoring (MRM) was used for quantitation: CBC m/z 315.1 → m/z 135.0; 1-acetoxy-6′,7′-dihydroxy-CBC (JM-I-73) m/z 349.1→ m/z 193.0; 1″-hydroxy-CBC (JM-I-66) m/z 331.1→ m/z 275.1; 6′,7′-epoxy-CBC (JM-I-27) m/z 331.1→ m/z 193.0; 7′,10′-ene-6′-hydroxy-CBC (JM-I-30) m/z 331.1→ m/z 193.0; 8′-hydroxy-CBC (JM-I-32) […]→ m/z 77.0. Internal standard EET-EA-d11 was monitored at m/z 375.2→ m/z 357.1.

[1] = tested on: BV2 microglial cells, stimulated with lipopolysaccharide (LPS); assay: TNFα ELISA in LPS-stimulated BV2 cells; type: cell-based, mouse; conditions: 0.1, 1.0, 2.5, 5.0 μM
Description: BV2 cells were a gift from Dr. Bob McCusker, University of Illinois. They were cultured and maintained at 37 °C in a humidified atmosphere of 95% air and 5% CO2 in high-glucose Dulbecco’s modified Eagle’s (DMEM) medium (Cat No. 10-013-CV, Corning Life Sciences), supplemented with 5% heat-inactivated fetal bovine serum (FBS), streptomycin (100 μg/mL), and penicillin (100 units/mL). Stocks of all the minor cannabinoids were made in ethanol and stored at −80 °C and diluted as required before cell treatment. A final concentration of ethanol was maintained at 0.1% in the cell culture experiments.
BV-2 cells were plated at a density of 50 000 cells/well in a 24-well plate at 37 °C under controlled conditions. Cells were pretreated with the minor cannabinoids at various concentrations (0.1, 1.0, 2.5, 5.0 μM) for 4 h and then stimulated with LPS for 24 h. The culture medium was removed and saved for the determination of nitric oxide production through Cayman’s Griess assay. IL-6, TNFα, and Arginase 1 production was also determined utilizing collected medium. For the Greiss assay, in a 96-well plate, 100 μL of culture medium was used, and 50 μL of both Greiss reagent-1 and Greiss reagent-2 was added and incubated for 10 min. The absorbance was measured at 540 nm using a plate reader (SpectraMax iD5). The quantification was done using a calibration curve that was generated using the sodium nitrite standard obtained from Cayman Chemicals.
BV-2 cells were pretreated with the minor cannabinoids as described previously for 4 h in serum media (reduced to 5% FBS). Cells were stimulated with LPS (25 ng/mL in growth media) and allowed to incubate for 24 h. The culture medium was collected, and the concentrations of IL-6 (Cayman Chemicals), TNFα (ThermoFisher Scientific), and arginase 1 (ThermoFisher Scientific) cytokine expression were determined using specific monoclonal antibodies by ELISA kits as per manufacturer’s instructions.

CYP2D6 = CYP2D6 (Homo sapiens, UniProt P10635); assay: CBC metabolism by CYP2D6; type: in vitro ADME; set-up: His-tag; made in house; host or cells: E. coli DH-5α with pTGro7 plasmid (CYP)
Sequence of CYP2D6 (P10635 whole entry): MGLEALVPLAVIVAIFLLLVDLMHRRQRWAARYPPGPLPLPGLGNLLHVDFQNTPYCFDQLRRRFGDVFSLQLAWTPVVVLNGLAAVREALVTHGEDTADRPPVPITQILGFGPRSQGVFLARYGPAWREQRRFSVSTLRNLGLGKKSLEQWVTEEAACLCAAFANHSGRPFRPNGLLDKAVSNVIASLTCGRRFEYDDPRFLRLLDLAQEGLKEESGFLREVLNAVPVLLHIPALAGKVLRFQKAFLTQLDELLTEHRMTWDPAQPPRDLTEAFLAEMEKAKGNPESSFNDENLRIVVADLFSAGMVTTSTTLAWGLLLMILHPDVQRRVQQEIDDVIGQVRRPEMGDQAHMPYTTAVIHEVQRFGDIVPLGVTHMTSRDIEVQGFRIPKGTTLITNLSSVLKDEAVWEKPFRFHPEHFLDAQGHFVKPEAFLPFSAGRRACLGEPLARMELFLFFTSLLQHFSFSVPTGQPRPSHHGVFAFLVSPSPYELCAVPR
Sequence of CYP2D6 (P16435 whole entry partner): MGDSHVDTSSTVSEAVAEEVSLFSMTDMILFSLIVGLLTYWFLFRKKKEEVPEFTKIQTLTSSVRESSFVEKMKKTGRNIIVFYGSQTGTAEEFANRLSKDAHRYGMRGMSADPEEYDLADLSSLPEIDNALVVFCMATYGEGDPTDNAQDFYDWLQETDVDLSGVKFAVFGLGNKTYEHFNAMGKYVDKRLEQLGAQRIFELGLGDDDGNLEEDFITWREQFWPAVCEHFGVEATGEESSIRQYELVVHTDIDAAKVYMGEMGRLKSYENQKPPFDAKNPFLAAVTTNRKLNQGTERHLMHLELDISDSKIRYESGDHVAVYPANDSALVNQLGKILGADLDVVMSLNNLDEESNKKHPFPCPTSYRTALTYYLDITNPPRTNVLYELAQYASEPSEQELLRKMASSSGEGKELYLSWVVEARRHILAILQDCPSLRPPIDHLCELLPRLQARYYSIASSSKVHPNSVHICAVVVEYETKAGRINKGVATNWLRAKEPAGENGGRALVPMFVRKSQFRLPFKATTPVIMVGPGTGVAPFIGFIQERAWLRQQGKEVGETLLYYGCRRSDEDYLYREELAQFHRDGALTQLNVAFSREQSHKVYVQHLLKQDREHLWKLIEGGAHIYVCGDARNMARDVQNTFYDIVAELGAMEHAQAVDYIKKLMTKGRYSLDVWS
Description: as §1, §2

[2] = target: T2, CYP3A4 in the presence of CPR (Homo sapiens, UniProt P08684); assay: Spectroscopic titration, CYP3A4–CPR complex; type: binding
T2 construct: His-tag; made in house; host or cells: E. coli DH-5α with pTGro7 plasmid (CYP)
T2 sequence (P08684 whole entry): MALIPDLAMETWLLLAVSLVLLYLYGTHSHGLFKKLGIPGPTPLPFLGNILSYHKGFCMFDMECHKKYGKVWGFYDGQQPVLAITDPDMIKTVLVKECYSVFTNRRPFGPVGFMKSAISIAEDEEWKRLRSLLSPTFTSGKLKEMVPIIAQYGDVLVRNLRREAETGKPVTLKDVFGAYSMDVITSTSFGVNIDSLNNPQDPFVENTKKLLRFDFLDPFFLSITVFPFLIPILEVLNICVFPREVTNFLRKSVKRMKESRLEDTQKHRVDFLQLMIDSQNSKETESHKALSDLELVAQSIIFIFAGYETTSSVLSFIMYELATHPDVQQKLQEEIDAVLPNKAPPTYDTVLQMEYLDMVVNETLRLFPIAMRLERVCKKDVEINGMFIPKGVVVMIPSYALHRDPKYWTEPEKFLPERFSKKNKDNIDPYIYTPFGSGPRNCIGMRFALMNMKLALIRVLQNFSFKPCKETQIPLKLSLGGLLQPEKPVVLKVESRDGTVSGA
T2 sequence (P16435 whole entry partner): as the sequence (P16435 whole entry partner) above
Description: For CBC titration to CYP–CPR complex, initially CYPs were dissolved in 400 μL of 0.1 M phosphate buffer (pH = 7.4) keeping the concentration between […]. Following this 50 μL of CPR (50 μM stock) was added to both cuvettes, and the final concentration of both of the proteins was 5–6 μM. Both proteins were initially mixed and incubated for 5 min followed by titration with CBC in the same process as mentioned above. The substrate-bound spectra were then subtracted from substrate-free spectra, and the extent of binding was analyzed using Origin Pro 2020.

| Compound | ratio of 8′-hydroxy-CBC to 6′,7′-epoxy-CBC formed (CYP2C8) | effect on TNFα production [1] | preference for 8′-hydroxy-CBC formation compared to 6′,7′-epoxy-CBC (CYP2D6) | ΔAmax (spin state change due to heme perturbation) [2] | Kd ([2]; read-out: Kd(app)) |
| --- | --- | --- | --- | --- | --- |
| CCCCCc1cc(O)c2c(c1)OC(C)(CC/C=C(\C)CO)C=C2 (centres unmarked) [8′-hydroxy-CBC] | around 5 | increase | 3–4 times | – | – |
| CCCCCc1cc(O)c2c(c1)OC(C)(CCC=C(C)C)C=C2 (centres unmarked) [CBC, Cannabichromene] | – | – | – | 0.03 ± 0.00 and 0.03–0.04 | 1.66 µM and ~1.6 µM and < 10 µM |
